pIC50: −log10 of the molar value. Active and inactive are the calls of the source. The calls are words filed in the database; no cut-off is given here.
Experiments:
HCT-116 [1] = experiment: Induction of molecular glue effect mediated DNMT1 degradation in human HCT-116 cells assessed as reduction in DNMT1 protein level by measuring half-life at 500 nM preincubated with cycloheximide for 2 hrs followed by compound administration and measured after 24 hrs by Western blot analysis; format: cell-based
HCT-116 [2] = experiment: Effect on DNMT1 mRNA level in human HCT-116 cells at 500 nM incubated for 24 hrs by RT-qPCR analysis; format: functional, cell-based
[3] = Induction of molecular glue effect mediated DNMT1 degradation in human NCI-H1299 cells assessed as reduction in DNMT1 protein level incubated for 24 hrs by Western blot analysis; format: cell-based; conditions: NCI-H1299, 24 h
MDA-MB-468 [4] = experiment: Effect on DNMT1 mRNA level in human MDA-MB-468 cells at 500 nM incubated for 24 hrs by RT-qPCR analysis; format: functional, cell-based
[5] = biological target: DNA (cytosine-5)-methyltransferase 1 (Homo sapiens, UniProt P26358); experiment: Inhibition of human DNMT1 (350 to 1600 residues) extracted from Escherichia coli BL21 (DE3)-codon plus-RIL cells in presence of SAM and hemimethylated DNA
Sequence of DNA (cytosine-5)-methyltransferase 1 (P26358 whole entry, the tested form may be a part): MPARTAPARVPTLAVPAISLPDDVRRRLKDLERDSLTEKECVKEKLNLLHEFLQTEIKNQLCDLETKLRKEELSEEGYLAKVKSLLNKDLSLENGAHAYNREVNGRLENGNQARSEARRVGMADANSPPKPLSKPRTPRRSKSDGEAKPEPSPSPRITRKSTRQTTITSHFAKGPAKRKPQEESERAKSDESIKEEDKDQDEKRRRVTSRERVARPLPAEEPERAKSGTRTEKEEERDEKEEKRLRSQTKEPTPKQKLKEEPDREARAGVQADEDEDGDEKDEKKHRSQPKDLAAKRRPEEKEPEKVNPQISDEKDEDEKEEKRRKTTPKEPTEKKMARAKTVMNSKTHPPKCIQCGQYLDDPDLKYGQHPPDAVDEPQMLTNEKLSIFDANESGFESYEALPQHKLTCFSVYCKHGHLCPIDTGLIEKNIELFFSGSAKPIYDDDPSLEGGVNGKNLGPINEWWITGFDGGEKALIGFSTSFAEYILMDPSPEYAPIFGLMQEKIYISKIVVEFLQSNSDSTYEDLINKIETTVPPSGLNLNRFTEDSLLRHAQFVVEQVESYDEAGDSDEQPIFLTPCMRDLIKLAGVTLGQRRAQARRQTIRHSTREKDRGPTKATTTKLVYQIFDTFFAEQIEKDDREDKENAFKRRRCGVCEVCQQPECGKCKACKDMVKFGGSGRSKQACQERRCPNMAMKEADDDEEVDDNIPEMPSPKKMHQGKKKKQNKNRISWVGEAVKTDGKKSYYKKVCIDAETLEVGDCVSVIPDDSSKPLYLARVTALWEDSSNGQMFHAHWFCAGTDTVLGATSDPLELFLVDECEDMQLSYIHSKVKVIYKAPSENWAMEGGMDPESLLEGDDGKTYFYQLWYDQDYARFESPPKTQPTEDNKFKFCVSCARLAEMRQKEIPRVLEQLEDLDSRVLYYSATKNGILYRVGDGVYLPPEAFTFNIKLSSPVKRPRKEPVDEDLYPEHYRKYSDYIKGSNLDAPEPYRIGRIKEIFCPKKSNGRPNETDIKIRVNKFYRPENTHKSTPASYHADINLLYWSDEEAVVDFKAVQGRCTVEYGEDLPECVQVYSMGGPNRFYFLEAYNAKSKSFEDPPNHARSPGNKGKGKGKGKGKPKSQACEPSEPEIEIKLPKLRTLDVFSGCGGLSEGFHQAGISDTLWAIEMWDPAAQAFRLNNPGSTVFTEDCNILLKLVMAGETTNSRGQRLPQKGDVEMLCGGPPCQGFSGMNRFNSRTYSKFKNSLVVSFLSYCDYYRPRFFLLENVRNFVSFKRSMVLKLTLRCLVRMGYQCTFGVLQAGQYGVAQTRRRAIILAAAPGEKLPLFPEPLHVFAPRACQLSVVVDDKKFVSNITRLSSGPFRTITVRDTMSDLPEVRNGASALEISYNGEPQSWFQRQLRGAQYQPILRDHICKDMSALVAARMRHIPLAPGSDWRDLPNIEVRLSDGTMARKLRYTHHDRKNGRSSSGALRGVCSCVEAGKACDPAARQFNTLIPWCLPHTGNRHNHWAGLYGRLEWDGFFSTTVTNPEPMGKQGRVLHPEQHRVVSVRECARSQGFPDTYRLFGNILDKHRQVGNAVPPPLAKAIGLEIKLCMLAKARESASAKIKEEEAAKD

[6] = biological target: DNA (cytosine-5)-methyltransferase 3A (Homo sapiens) (UniProt Q9Y6K1); experiment: Inhibition of human DNMT3A using lambda DNA and SAM as substrate at 1 uM by radioisotope-based MT HotSpot assay relative to control
Sequence of DNA (cytosine-5)-methyltransferase 3A (Homo sapiens) (Q9Y6K1 whole entry, looked up): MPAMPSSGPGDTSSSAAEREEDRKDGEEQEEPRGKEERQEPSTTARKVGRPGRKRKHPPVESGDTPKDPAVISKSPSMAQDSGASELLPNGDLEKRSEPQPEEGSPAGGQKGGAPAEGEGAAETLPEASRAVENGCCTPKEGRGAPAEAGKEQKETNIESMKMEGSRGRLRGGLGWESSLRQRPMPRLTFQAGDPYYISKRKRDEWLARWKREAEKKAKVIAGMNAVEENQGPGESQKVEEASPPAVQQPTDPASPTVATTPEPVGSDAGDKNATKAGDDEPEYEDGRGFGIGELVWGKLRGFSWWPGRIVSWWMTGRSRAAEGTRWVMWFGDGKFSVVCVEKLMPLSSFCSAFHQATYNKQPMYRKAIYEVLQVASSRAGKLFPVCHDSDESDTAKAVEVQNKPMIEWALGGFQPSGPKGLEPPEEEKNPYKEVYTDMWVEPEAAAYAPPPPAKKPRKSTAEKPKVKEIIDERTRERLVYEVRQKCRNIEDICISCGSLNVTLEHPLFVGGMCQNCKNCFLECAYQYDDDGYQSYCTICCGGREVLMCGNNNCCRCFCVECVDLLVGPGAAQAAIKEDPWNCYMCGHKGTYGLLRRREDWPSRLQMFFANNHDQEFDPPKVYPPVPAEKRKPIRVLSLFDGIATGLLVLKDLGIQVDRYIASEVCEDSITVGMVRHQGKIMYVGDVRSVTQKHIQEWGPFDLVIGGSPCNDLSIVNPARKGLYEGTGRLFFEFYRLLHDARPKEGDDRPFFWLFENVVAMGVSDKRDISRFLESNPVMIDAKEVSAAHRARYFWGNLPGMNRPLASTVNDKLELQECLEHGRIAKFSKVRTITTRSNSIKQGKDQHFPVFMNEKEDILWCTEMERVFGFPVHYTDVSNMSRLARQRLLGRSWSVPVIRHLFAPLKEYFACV

[7] = biological target: DNA (cytosine-5)-methyltransferase 3B (Homo sapiens) (UniProt Q9UBC3); experiment: Inhibition of human full-length DNMT3B using lambda DNA and SAM as substrate at 1 uM by radioisotope-based MT HotSpot assay relative to control
[8] = biological target: Histone-lysine N-methyltransferase EZH2 (Homo sapiens) (UniProt Q15910); experiment: Inhibition of human EZH2 using core histone and SAM as substrate at 1 uM by radioisotope-based MT HotSpot assay relative to control
Sequence of Histone-lysine N-methyltransferase EZH2 (Homo sapiens) (Q15910 whole entry, looked up): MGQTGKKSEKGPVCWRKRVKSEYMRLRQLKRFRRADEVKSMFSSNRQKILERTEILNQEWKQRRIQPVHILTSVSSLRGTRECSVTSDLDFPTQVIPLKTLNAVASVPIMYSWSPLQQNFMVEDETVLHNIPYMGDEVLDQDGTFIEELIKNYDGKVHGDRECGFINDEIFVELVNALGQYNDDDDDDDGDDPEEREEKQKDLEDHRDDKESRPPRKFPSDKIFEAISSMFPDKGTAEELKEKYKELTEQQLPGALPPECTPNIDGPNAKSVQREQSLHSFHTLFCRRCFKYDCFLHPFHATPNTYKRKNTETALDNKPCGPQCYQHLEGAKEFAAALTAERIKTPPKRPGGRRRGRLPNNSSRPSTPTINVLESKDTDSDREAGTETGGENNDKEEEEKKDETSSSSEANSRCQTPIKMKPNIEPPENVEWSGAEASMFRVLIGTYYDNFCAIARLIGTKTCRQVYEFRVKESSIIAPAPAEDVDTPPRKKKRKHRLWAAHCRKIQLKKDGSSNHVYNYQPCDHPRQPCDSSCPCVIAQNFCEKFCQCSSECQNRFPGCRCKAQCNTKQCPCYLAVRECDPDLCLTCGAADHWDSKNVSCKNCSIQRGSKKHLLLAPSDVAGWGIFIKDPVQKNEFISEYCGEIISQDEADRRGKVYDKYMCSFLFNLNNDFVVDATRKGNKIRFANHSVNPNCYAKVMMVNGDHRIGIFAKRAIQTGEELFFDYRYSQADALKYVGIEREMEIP

[9] = biological target: Histone-lysine N-methyltransferase 2A (Homo sapiens) (UniProt Q03164); experiment: Inhibition of human MLL1 using nucleosomes and SAM as substrate at 1 uM by radioisotope-based MT HotSpot assay relative to control
[10] = biological target: T1, Histone-lysine N-methyltransferase NSD2 (Homo sapiens) (UniProt O96028); experiment: Inhibition of human NSD2 using nucleosomes and SAM as substrate at 1 uM by radioisotope-based MT HotSpot assay relative to control
T1 sequence (whole entry): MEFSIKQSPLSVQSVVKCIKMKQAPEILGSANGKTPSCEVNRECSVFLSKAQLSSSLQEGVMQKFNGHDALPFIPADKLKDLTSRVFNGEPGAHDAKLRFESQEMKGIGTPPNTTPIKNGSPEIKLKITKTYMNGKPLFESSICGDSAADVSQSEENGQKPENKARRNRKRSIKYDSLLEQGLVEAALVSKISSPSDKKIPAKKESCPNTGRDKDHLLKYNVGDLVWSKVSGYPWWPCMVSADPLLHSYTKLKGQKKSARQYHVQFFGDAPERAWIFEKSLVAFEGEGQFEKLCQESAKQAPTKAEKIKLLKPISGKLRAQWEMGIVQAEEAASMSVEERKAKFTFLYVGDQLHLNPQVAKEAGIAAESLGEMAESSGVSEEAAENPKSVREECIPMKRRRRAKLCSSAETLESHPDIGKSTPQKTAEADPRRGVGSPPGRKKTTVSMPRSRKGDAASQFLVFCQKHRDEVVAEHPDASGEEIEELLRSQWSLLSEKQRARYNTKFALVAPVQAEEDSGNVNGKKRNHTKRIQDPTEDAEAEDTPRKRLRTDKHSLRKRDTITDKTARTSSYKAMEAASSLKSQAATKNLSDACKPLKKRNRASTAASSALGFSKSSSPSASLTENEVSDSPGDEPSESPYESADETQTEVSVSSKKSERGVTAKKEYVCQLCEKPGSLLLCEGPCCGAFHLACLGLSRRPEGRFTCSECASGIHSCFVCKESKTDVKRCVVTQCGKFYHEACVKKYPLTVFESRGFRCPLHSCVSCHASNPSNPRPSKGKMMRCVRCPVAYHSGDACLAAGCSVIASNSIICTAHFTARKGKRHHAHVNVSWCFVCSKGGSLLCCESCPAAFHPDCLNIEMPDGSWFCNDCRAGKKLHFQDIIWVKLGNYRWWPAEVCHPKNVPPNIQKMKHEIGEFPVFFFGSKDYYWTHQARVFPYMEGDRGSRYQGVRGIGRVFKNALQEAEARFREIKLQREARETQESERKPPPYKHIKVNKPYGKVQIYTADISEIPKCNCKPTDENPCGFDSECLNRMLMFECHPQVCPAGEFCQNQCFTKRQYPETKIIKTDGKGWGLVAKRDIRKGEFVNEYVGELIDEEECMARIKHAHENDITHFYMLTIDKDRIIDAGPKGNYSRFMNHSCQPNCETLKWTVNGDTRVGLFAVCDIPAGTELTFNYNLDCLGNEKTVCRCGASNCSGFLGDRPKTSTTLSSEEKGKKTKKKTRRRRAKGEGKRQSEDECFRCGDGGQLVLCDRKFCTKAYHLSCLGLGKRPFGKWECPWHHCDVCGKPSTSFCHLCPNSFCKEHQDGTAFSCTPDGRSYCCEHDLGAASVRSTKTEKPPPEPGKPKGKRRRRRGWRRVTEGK

HCT-116 [11] = experiment: Downregulation of DNMT1 protein level in human HCT-116 cells at 1 uM incubated for 12 hrs by MS-based global proteomic analysis; format: functional, cell-based
HCT-116 [12] = experiment: Induction of molecular glue effect mediated DNMT1 degradation in human HCT-116 cells assessed as reduction in DNMT1 protein level at 100 nM preincubated with MG132 for 2 hrs followed by compound addition and measured after 24 hrs by Western blot analysis; format: cell-based
MDA-MB-468 [13] = experiment: Induction of molecular glue effect mediated DNMT1 degradation in human MDA-MB-468 cells assessed as reduction in DNMT1 protein level at 100 nM preincubated with MG132 for 2 hrs followed by compound addition and measured after 24 hrs by Western blot analysis; format: cell-based
HCT-116 [14] = experiment: Induction of molecular glue effect mediated DNMT1 degradation in human HCT-116 cells assessed as reduction in DNMT1 protein level at 100 nM preincubated with TAK-243 for 2 hrs followed by compound addition and measured after 24 hrs by Western blot analysis; format: cell-based
NCI-H1299 = experiment: Induction of molecular glue effect mediated DNMT1 degradation in human NCI-H1299 cells assessed as reduction in DNMT1 protein level at 100 nM preincubated with MLN4924 for 2 hrs followed by compound addition and measured after 24 hrs by Western blot analysis; format: cell-based
HCT-116 [15] = experiment: Induction of molecular glue effect mediated DNMT1 degradation in human HCT-116 cells transfected with WWP1 siRNA assessed as reduction in DNMT1 protein level at 100 nM measured after 24 hrs by Western blot analysis; format: cell-based

DC50 [3]: 86 nM
pIC50 [5]: 6.37
inhibition [6]: < 20%
inhibition [7]: < 20%
inhibition [8]: < 20%
inhibition [9]: < 20%
inhibition [10]: < 20%
SMILES: CCc1c(C#N)c(SC(C(N)=O)c2ccccc2)nc(N(C)CC(=O)NC)c1C#N (stereo unspecified)
T1/2 (HCT-116 [1]): < 4 h
Activity (HCT-116 [2]): inactive
Activity (MDA-MB-468 [4]): inactive
Activity (HCT-116 [11]): Active
Activity (HCT-116 [12]): inactive
Activity (MDA-MB-468 [13]): inactive
Activity (HCT-116 [14]): inactive
Activity (NCI-H1299): Active
Activity (HCT-116 [15]): Active

Source: ChEMBL document CHEMBL6121066, “Structure-Activity Relationship Studies of DNA Methyltransferase 1 Monovalent Degraders” (J Med Chem, 2025)
